SMILES strings stand for the structures. Where two headings read alike, the source gives them in different places. A value given as a limit tells only on which side of the number the result lay.

The test system of this assay is β-catenin-TCF-mediated reporter transcription activity in Colo 205 cells. As to the kind of experiment: Colo 205 reporter assay (TCF/LEF luciferase). Type of assay: cell-based. The settings on record: Colo 205 TCF/LEF luciferase reporter, five hours after addition of compound, read-out: TCF reporter Colo205 IC50. From the text: The compounds of the invention described herein were screened using the assay procedure for β-catenin-TCF-mediated reporter transcription activity described below.
Reporter cell lines were generated by stably transfecting cells of cancer cell lines (e.g., colon cancer) with a plasmid reporter construct (From SABiosciences, a QIAGEN company) that includes TCF/LEF promoter driving expression of the firefly luciferase gene. TCF/LEF reporter constructs were made in which TCF/LEF promoter, a promoter with optimal number of TCF/LEF binding sites designed by SABiosceinces, was linked upstream of the firefly luciferase gene. This construct could also include a puromycin resistance gene as a selectable marker. This construct could also be used to stably transfect Colo 205 cells, a colon cancer cell line having a mutated APC gene that causes a constitutively active β-catenin. A control cell line was generated using another plasmid construct containing the luciferase gene under the control of a CMV basal promoter which is not activated by p-catenin.
Colo 205 Cultured cells with a stably transfected reporter construct were plated at approximately 10,000 cells per well into 384 well multi-well plates for twenty four hours. The testing compounds were then added to the wells in 2-fold serial dilutions using a twenty micromolar top concentration. A series of control wells for each cell type received only compound solvent. Five hours after the addition of compound, reporter activity for luciferase was assayed, by addition of the SteadyGlo luminescence reagent (Promega). The reporter luminescence activity was measured using Pherastar plate reader (BMG Labtech). Readings were normalized to DMSO only treated cells, and normalized activities were then used in the IC50 calculations. The Colo 205 reporter assay data are summarized in Table 45: A<0.3 μM; 0.3 μM≤B<1.0 μM; 1.0 μM≤C<5.0 μM; D≥5.0 μM
Colo 205 reporter assay data has also been obtained for certain R-isomers of Formula (I) wherein R^4 is —H or -D, and wherein the carbon to which R^3 and R^4 are attached (C2 carbon of Formula (X)) has R stereochemistry; such epimeric compounds are represented using the suffix “B” attached to the Compound described herein having the S stereochemistry at the carbon to which R^3 and R^4 are attached: […]

One may read the IC50 as the concentration at which inhibition is half-maximal. `COCC1(C)C(=O)Nc2c(C)nc(N[C@H]3C[C@H](Oc4ccc(C(F)(F)F)nc4)C3)nc2N1C` (relative stereo) [Compound 724, 7-(methoxymethyl)-4,7,8-trimethyl-2-((trans-3-((6-(trifluoromethyl)pyridin-3-yl)oxy)cyclobutyl)amino)-7,8-dihydropteridin-6(5H)-one]: where the note is “Homo sapiens, COLO 205, 5 h”, the IC50 was 300 to 1000 nM.

For `C[C@H]1C(=O)Nc2cnc(NC3CC(C)(OCc4cc(F)c(F)c(F)c4)C3)nc2N1C` (stereo in doubt) [Compound 289, (S)-7,8-dimethyl-2-((cis-3-methyl-3-((3,4,5-trifluorobenzyl)oxy)cyclobutyl)amino)-7,8-dihydropteridin-6(5H)-one], the IC50 is ≥ 5000 nM. Consider `Cc1nc(NC2CC(C)(OCc3cc(F)c(F)c(F)c3)C2)nc2c1NC(=O)[C@H](C)N2C` (stereo in doubt) [Compound 290, (7S)-4,7,8-trimethyl-2-((cis-3-methyl-3-((3,4,5-trifluorobenzyl)oxy)cyclobutyl)amino)-7,8-dihydropteridin-6(5H)-one], for which the half-maximal inhibitory concentration (IC50) is ≥ 5000 nM.

On to `CNc1ccc(Cn2cc(CNc3nc(C)c4c(n3)N(C)[C@@H](C)C(=O)N4)cn2)cn1` [Compound 10, (7S)-4,7,8-trimethyl-2-(((1-((6-(methylamino)pyridin-3-yl)methyl)-1H-pyrazol-4-yl)methyl)amino)-7,8-dihydropteridin-6(5H)-one], for which, under “Homo sapiens, COLO 205, 5 h”, the IC50 is ≥ 5000 nM. As to `O=C1Nc2cnc(NCc3cnn(Cc4ccc(F)cc4)c3)nc2N[C@H]1CCO` [Compound 11, (7S)-2-(((1-(4-Fluorobenzyl)-1H-pyrazol-4-yl)methyl)amino)-7-(2-hydroxyethyl)-7,8-dihydropteridin-6(5H)-one], the IC50 (Homo sapiens, COLO 205, 5 h) was ≥ 5000 nM. On the same count and under the same terms, the same measure for `Cc1nc(NCc2cnn(Cc3ccnc(N(C)C)c3)c2)nc2c1NC(=O)[C@H](C)N2C` [Compound 12, (7S)-2-(((1-((2-(dimethylamino)pyridin-4-yl)methyl)-1H-pyrazol-4-yl)methyl)amino)-4,7,8-trimethyl-7,8-dihydropteridin-6(5H)-one]: 300 to 1000 nM; for `O=C1Nc2cnc(NCc3cnn(CCc4ccc(F)cc4)c3)nc2N[C@H]1CCO` [Compound 13, (7S)-2-(((1-(4-fluorophenethyl)-1H-pyrazol-4-yl)methyl)amino)-7-(2-hydroxyethyl)-7,8-dihydropteridin-6(5H)-one]: ≥ 5000 nM. Consider `Cc1nc(NCc2cnn(Cc3cc(F)c(F)cc3F)c2)nc2c1N(C)C(=O)[C@H](C)N2C` [Compound 16, (7S)-4,5,7,8-tetramethyl-2-(((1-(2,4,5-trifluorobenzyl)-1H-pyrazol-4-yl)methyl)amino)-7,8-dihydropteridin-6(5H)-one], for which the IC50 (Homo sapiens, COLO 205, 5 h) was < 300 nM.

Consider `Cc1nc(NCc2cnn(Cc3ccc(F)c(F)c3F)c2)nc2c1N(C)C(=O)[C@H](C)N2C` [Compound 17, (7S)-4,5,7,8-tetramethyl-2-(((1-(2,3,4-trifluorobenzyl)-1H-pyrazol-4-yl)methyl)amino)-7,8-dihydropteridin-6(5H)-one], for which, for the setting “Homo sapiens, COLO 205, 5 h”, the IC50 was < 300 nM. Still for that read-out and setting: the same measure for `Cc1nc(NCc2cnn(Cc3c(F)cc(F)cc3F)c2)nc2c1N(C)C(=O)[C@H](C)N2C` [Compound 18, (7S)-4,5,7,8-tetramethyl-2-(((1-(2,4,6-trifluorobenzyl)-1H-pyrazol-4-yl)methyl)amino)-7,8-dihydropteridin-6(5H)-one]: < 300 nM. For `CO[C@H](C)[C@H]1C(=O)N(C)c2cnc(NCc3cnn(Cc4ccc(F)cc4)c3)nc2N1C` [Compound 20, (7S)-2-(((1-(4-fluorobenzyl)-1H-pyrazol-4-yl)methyl)amino)-7-((R)-1-methoxyethyl)-5,8-dimethyl-7,8-dihydropteridin-6(5H)-one], the IC50 (Homo sapiens, COLO 205, 5 h) lay within 300 to 1000 nM.

Turning to `CO[C@H](C)[C@H]1C(=O)N(C)c2cnc(NCc3cnn(Cc4cc(F)c(F)c(F)c4)c3)nc2N1C` [Compound 21, (7S)-7-((R)-1-methoxyethyl)-5,8-dimethyl-2-(((1-(3,4,5-trifluorobenzyl)-1H-pyrazol-4-yl)methyl)amino)-7,8-dihydropteridin-6(5H)-one], where the note is “Homo sapiens, COLO 205, 5 h”, the IC50 is < 300 nM. Turning to `C#CC[C@H]1C(=O)N(C)c2cnc(NCc3cnn(Cc4cc(F)c(F)c(F)c4)c3)nc2N1C` [Compound 25, (7S)-5,8-dimethyl-7-(prop-2-yn-1-yl)-2-(((1-(3,4,5-trifluorobenzyl)-1H-pyrazol-4-yl)methyl)amino)-7,8-dihydropteridin-6(5H)-one], the IC50 (Homo sapiens, COLO 205, 5 h) was < 300 nM. The same measure, in the same setting: the same measure for `C#CC[C@H]1C(=O)N(C)c2cnc(NCc3cnn(Cc4ccc(F)cc4)c3)nc2N1C` [Compound 26, (7S)-2-(((1-(4-fluorobenzyl)-1H-pyrazol-4-yl)methyl)amino)-5,8-dimethyl-7-(prop-2-yn-1-yl)-7,8-dihydropteridin-6(5H)-one]: < 300 nM; for `C[C@H]1C(=O)N(C)c2cnc(NCc3cnn(Cc4ccc(F)cc4)c3)nc2N1C` [Compound 27, (7S)-2-(((1-(4-fluorobenzyl)-1H-pyrazol-4-yl)methyl)amino)-5,7,8-trimethyl-7,8-dihydropteridin-6(5H)-one]: 300 to 1000 nM. As for `Cc1nc(NCc2cnn(Cc3ccc(F)c(F)c3)c2)nc2c1N(C)C(=O)[C@H](C)N2C` [Compound 28, (7S)-2-(((1-(3,4-difluorobenzyl)-1H-pyrazol-4-yl)methyl)amino)-4,5,7,8-tetramethyl-7,8-dihydropteridin-6(5H)-one], the IC50 (Homo sapiens, COLO 205, 5 h) was < 300 nM. `Cc1nc(NCc2cnn(Cc3ccc(F)cc3F)c2)nc2c1N(C)C(=O)[C@H](C)N2C` [Compound 29, (7S)-2-(((1-(2,4-difluorobenzyl)-1H-pyrazol-4-yl)methyl)amino)-4,5,7,8-tetramethyl-7,8-dihydropteridin-6(5H)-one]: under “Homo sapiens, COLO 205, 5 h”, the IC50 is < 300 nM. Consider `CCN1C(=O)[C@H](C)N(CC)c2nc(NCc3cnn(Cc4cc(F)c(F)c(F)c4)c3)ncc21` [Compound 31, (7S)-5,8-diethyl-7-methyl-2-(((1-(3,4,5-trifluorobenzyl)-1H-pyrazol-4-yl)methyl)amino)-7,8-dihydropteridin-6(5H)-one], for which the IC50 (Homo sapiens, COLO 205, 5 h) was < 300 nM.

As to `CC[C@H]1C(=O)N(C)c2cnc(NCc3cnn(Cc4cc(F)c(F)c(F)c4)c3)nc2N1CC(F)(F)F` [Compound 33, (7S)-7-ethyl-5-methyl-2-(((1-(3,4,5-trifluorobenzyl)-1H-pyrazol-4-yl)methyl)amino)-8-(2,2,2-trifluoroethyl)-7,8-dihydropteridin-6(5H)-one], the IC50 (Homo sapiens, COLO 205, 5 h) was in the range of 300 to 1000 nM.

Regarding `CCN1C(=O)[C@](C)(CC)N(CC)c2nc(NCc3cnn(Cc4cc(F)c(F)c(F)c4)c3)ncc21` [Compound 35, (7S)-5,7,8-triethyl-7-methyl-2-(((1-(3,4,5-trifluorobenzyl)-1H-pyrazol-4-yl)methyl)amino)-7,8-dihydropteridin-6(5H)-one], for the setting “Homo sapiens, COLO 205, 5 h”, the half-maximal inhibitory concentration (IC50) was < 300 nM. For the molecule `CC[C@H]1C(=O)N(C)c2cnc(NCc3cnn(Cc4cc(F)c(F)c(F)c4)c3)nc2N1C(C)C` [Compound 36, (7S)-7-ethyl-8-isopropyl-5-methyl-2-(((1-(3,4,5-trifluorobenzyl)-1H-pyrazol-4-yl)methyl)amino)-7,8-dihydropteridin-6(5H)-one], the IC50 (Homo sapiens, COLO 205, 5 h) is < 300 nM. Regarding `CCN1C(=O)[C@H](CCO)N(CC)c2nc(NCc3cnn(Cc4cc(F)c(F)c(F)c4)c3)ncc21` [Compound 37, (7S)-5,8-diethyl-7-(2-hydroxyethyl)-2-(((1-(3,4,5-trifluorobenzyl)-1H-pyrazol-4-yl)methyl)amino)-7,8-dihydropteridin-6(5H)-one], for the setting “Homo sapiens, COLO 205, 5 h”, the IC50 was < 300 nM.

For `CCN1C(=O)[C@H](CCO)N(CC)c2nc(NCc3cnn(Cc4ccc(F)cc4)c3)ncc21` [Compound 38, (7S)-5,8-diethyl-2-(((1-(4-fluorobenzyl)-1H-pyrazol-4-yl)methyl)amino)-7-(2-hydroxyethyl)-7,8-dihydropteridin-6(5H)-one], under “Homo sapiens, COLO 205, 5 h”, the IC50 was < 300 nM. For `Cc1nc(NCc2ccc(-c3ccc(F)cc3)o2)nc2c1NC(=O)[C@H](C)N2C` [Compound 40, (7S)-2-(((5-(4-Fluorophenyl)furan-2-yl)methyl)amino)-4,7,8-trimethyl-7,8-dihydropteridin-6(5H)-one], the IC50 (Homo sapiens, COLO 205, 5 h) was 1000 to 5000 nM.

On to `C[C@H]1C(=O)Nc2cnc(NCc3cnn(Cc4ccc(F)cc4)c3)nc2N1C` [Compound 41, (7S)-2-(((1-(4-fluorobenzyl)-1H-pyrazol-4-yl)methyl)amino)-7,8-dimethyl-7,8-dihydropteridin-6(5H)-one], for which the IC50 (Homo sapiens, COLO 205, 5 h) was in the range of 300 to 1000 nM. On to `C[C@H]1C(=O)Nc2cnc(NCc3ccc(-c4ccc(F)cc4)o3)nc2N1C` [Compound 43, (7S)-2-(((5-(4-fluorophenyl)furan-2-yl)methyl)amino)-7,8-dimethyl-7,8-dihydropteridin-6(5H)-one], for which the IC50 (Homo sapiens, COLO 205, 5 h) is ≥ 5000 nM.

Values taken from patent publication US20230312587A1, “PTERIDINONE COMPOUNDS AND USES THEREOF” (Vertex Pharmaceutical Incorporated, priority 2018, published 2023).
